Experimental data as given in article PMC8533176, “1,5-Benzodiazepin-2(3H)-ones: In Vitro Evaluation as Antiparkinsonian Agents” (Antioxidants, 2021).

Experiments:
SH-SY5Y cells [1] = assay: Neuroprotection in the 6-OHD neurotoxicity-induced model, MTT; type: cell-based, human; conditions: 6-OHD 250 µM 48 h; compounds 24 h before
SH-SY5Y cells [2] = assay: Calcein-AM cell viability assay under H2O2; type: cell-based, human; conditions: H2O2 250 µM 24 h; 5, 10, 20, and 40 µM; Figure 12
Procedure: Calcein-AM is a fluorescence-based cell viability assay. Calcein-acetoxymethyl (AM) is a non-fluorescent compound that enters the cells where intracellular esterases hydrolyze the acetoxymethyl group. The fluorescent calcein is retained in the living cells, and it can be detected at λex = 495 and λem = 550 nm. After treatment, all the samples were washed with PBS and incubated with 2 μM calcein-AM for 30 min at 37 °C, 5% CO2, and protected from light. The fluorescence was measured in a Varioskan microplate reader (Thermo Fisher Scientific, Vantaa, Finland) with λex = 490 and λem = 520 nm filters. Cell viability was calculated from samples treated with 1% Triton X-100 for 30 min at 37 °C, 5% CO2.
Calcein-AM is a membrane permeant, not a fluorescent compound. Only live cells with intact plasma membrane have esterases that hydrolyze the compound into the green fluorescent dye calcein, which is retained in the cytoplasm. The fluorescent signal obtained is proportional to the number of living cells in the sample. […] Microscopy images in Figure S3 show the neuroprotection activity observed with Calcein-AM for derivative 18.

SH-SY5Y cells [3] = assay: Resazurin cell viability assay under H2O2; type: cell-based, human; conditions: H2O2 250 µM 24 h; Figure 10B
[4] = Chemical reactivity with H2O2; type: physicochemical; conditions: H2O2 500 µM, 37 °C, 4 h, DMEM:F12 without cells
Procedure: In our case, before running the protection experiments under oxidative stress conditions, we carried out experiments to assess the potential reactivity of compounds 9, 11, 13, and 18 at four different concentrations (5, 10, 20, and 40 µM) with H2O2 500 µM at 37 °C for 4 h in DMEM:F12 (without phenol red, FBS, and cells). Curcumin was used as a control compound.

Reaction with H2O2 [4]: did not show any significant reaction
Structure (SMILES): O=C1CC(c2ccccc2)=Nc2ccccc2N1 [Compound 18, 4-Phenyl-1H-1,5-benzodiazepin-2(3H)-one]
Neuroprotection, cell viability (MTT), 6-OHD model (SH-SY5Y cells [1]): significant neuroprotection
Neuroprotection, Calcein-AM cell counting (SH-SY5Y cells [2]): statistically significant neuroprotectant activity
Neuroprotection, cell viability (resazurin) (SH-SY5Y cells [3]): significant protection against the oxidative stress insult
